# Results: the kinase profiling compilation of Christmann-Franck et al. (2016)
# Several values for one entry are separate records, joined by “and”; a condition that tells them apart may be missing. Identical values can stand only once.
# Assays:
# Assay in all cases: Caliper, Mobility shift assay off-chip
# ALK (human) = ALK (human) (UniProt Q9UM73)
# CAMK1 (human) = CAMK1 (human) (UniProt Q14012)
# CLK2 (human) = CLK2 (human) (UniProt P49760)
# PIM2 (human) = PIM2 (human) (UniProt Q9P1W9)
# NUAK1 (human) = NUAK1 (human) (UniProt O60285)
# EPHA4 (human) = EPHA4 (human) (UniProt P54764)
# PRKAA1 (human) = PRKAA1 (human) (UniProt Q13131)
# MELK (human) = MELK (human) (UniProt Q14680)
# DDR1 (human) = DDR1 (human) (UniProt Q08345)
# Sequence of DDR1 (human) (Q08345 whole entry, looked up): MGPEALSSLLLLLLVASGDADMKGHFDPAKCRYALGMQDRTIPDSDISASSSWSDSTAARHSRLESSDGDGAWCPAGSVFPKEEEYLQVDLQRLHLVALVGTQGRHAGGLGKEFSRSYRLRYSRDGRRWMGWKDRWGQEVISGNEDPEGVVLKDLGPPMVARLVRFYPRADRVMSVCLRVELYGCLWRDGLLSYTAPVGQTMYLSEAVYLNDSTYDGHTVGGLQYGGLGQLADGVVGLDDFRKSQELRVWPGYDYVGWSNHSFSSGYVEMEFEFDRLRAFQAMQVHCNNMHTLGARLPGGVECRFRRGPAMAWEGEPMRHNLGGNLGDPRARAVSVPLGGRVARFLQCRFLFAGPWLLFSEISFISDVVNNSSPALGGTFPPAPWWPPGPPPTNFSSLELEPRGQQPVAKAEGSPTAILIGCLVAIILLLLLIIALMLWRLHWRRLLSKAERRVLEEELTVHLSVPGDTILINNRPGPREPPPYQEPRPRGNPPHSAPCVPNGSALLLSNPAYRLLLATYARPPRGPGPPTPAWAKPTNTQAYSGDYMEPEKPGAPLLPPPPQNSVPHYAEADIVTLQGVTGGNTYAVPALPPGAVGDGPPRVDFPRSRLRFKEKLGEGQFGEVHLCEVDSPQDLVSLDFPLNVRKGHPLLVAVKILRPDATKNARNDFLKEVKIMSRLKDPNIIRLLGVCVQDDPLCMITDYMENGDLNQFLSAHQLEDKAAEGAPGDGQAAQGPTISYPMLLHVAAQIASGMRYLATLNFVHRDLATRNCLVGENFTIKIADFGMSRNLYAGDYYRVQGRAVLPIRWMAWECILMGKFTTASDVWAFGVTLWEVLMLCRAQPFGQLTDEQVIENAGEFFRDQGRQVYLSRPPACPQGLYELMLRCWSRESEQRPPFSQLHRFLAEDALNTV
# CDK2 (human) = CDK2 (human) (UniProt P24941)
# RPS6KA5 KD1 KD2 (human) = RPS6KA5 KD1 KD2 (human) (UniProt O75582)
# Sequence of RPS6KA5 KD1 KD2 (human) (O75582 whole entry, looked up): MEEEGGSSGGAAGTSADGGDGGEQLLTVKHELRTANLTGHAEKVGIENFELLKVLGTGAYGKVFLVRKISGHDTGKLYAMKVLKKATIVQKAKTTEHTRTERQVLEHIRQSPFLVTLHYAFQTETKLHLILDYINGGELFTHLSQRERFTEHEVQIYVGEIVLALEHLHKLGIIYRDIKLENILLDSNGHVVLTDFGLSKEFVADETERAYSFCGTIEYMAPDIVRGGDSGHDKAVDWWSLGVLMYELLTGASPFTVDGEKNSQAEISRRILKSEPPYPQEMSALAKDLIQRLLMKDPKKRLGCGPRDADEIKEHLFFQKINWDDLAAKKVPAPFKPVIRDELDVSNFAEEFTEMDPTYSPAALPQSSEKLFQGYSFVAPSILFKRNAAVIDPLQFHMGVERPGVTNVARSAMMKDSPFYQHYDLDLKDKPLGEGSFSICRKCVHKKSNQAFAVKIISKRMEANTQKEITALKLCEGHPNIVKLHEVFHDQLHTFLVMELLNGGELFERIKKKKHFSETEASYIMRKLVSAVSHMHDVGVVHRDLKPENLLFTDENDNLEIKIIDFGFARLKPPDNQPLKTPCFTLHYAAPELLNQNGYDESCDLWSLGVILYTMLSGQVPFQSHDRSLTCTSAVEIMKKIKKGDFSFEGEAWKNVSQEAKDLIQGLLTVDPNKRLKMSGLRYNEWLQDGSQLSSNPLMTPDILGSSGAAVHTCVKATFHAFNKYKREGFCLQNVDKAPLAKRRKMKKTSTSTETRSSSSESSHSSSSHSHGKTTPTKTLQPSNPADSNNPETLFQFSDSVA
# MST1R (human) = MST1R (human) (UniProt Q04912)
# PRKAA2 (human) = PRKAA2 (human) (UniProt P54646)
# CLK3 (human) = CLK3 (human) (UniProt P49761)
# MUSK (human) = MUSK (human) (UniProt O15146)
# ALK EML4 (human) = ALK EML4 (human) (UniProt Q9HC35+Q9UM73)
# NEK7 (human) = NEK7 (human) (UniProt Q8TDX7)
# CSNK1D (human) = CSNK1D (human) (UniProt P48730)
# Sequence of CSNK1D (human) (P48730 whole entry, looked up): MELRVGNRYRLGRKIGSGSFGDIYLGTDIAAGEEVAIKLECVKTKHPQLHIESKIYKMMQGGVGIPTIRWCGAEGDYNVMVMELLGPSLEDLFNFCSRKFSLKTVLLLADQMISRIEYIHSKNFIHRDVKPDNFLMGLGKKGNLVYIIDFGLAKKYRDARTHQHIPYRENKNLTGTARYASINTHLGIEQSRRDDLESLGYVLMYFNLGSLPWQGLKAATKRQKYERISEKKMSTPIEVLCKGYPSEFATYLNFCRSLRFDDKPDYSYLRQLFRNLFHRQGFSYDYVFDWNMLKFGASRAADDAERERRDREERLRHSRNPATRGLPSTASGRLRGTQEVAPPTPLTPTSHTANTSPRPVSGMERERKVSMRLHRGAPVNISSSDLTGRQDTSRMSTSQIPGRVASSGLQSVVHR
# TEK (human) = TEK (human) (UniProt Q02763)
# PIM1 (human) = PIM1 (human) (UniProt P11309)
# Sequence of PIM1 (human) (P11309 whole entry, looked up): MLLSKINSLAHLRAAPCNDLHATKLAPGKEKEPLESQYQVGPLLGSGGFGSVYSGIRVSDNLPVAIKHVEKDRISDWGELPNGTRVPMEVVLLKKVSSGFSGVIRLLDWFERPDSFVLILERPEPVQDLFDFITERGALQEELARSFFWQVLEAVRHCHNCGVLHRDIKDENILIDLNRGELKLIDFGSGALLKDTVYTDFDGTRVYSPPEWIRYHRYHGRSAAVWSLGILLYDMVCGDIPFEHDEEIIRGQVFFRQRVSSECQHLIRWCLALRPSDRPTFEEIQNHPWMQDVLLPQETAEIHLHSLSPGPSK
# PAK4 (human) = PAK4 (human) (UniProt O96013)
# NUAK2 (human) = NUAK2 (human) (UniProt Q9H093)
# SYK (human) = SYK (human) (UniProt P43405)
# RPS6KB2 (human) = RPS6KB2 (human) (UniProt Q9UBS0)
# MAPK7 (human) = MAPK7 (human) (UniProt Q13164)
# FGFR3 (human) = FGFR3 (human) (UniProt P22607)
# PASK (human) = PASK (human) (UniProt Q96RG2)
# PDK2 (human) = PDK2 (human) (UniProt Q15119)
# EEF2K (human) = EEF2K (human) (UniProt O00418)
# CDC42BPA (human) = CDC42BPA (human) (UniProt Q5VT25)
# Sequence of CDC42BPA (human) (Q5VT25 whole entry, looked up): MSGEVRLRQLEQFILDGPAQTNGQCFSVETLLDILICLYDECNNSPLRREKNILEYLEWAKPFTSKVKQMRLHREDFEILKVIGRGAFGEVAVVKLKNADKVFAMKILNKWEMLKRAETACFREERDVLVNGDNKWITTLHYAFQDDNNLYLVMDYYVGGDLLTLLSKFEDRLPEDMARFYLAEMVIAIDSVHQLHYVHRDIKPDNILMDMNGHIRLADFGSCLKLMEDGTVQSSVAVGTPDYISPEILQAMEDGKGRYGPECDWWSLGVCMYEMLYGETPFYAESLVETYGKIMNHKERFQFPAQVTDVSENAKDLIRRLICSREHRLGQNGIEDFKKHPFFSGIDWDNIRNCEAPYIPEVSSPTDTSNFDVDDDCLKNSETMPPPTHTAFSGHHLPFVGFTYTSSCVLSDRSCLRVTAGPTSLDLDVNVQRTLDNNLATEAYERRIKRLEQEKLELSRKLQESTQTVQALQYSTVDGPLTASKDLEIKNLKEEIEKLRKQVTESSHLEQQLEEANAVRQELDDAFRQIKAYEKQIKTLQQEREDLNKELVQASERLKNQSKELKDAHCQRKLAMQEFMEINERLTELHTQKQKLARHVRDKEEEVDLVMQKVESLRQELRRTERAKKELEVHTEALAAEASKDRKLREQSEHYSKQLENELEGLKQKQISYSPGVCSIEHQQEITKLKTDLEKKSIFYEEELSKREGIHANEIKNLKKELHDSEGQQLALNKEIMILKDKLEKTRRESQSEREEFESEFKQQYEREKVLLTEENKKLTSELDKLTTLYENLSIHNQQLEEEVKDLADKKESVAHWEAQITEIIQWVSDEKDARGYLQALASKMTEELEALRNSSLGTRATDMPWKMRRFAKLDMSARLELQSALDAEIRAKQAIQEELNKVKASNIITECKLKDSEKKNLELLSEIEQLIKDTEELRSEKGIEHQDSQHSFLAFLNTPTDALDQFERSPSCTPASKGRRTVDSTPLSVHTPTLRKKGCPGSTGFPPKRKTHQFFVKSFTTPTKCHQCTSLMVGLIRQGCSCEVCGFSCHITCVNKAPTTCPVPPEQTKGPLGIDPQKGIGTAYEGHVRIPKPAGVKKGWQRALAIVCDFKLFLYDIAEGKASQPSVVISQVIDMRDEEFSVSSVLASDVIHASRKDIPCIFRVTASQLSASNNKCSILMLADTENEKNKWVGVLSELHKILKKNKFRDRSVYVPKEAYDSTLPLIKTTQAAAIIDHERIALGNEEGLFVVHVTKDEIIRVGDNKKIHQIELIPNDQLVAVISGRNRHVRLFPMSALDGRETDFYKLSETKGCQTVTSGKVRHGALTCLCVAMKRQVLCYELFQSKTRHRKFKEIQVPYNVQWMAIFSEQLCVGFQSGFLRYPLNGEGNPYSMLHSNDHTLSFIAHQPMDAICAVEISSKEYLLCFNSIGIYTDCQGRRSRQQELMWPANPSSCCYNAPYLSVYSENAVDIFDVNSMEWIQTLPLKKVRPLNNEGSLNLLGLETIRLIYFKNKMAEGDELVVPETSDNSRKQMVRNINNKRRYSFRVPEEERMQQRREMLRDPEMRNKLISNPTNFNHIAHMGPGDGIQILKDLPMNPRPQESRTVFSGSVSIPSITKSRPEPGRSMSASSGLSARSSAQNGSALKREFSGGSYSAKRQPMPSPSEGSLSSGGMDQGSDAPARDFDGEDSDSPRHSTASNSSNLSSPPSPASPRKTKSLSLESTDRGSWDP
# PRKACA (human) = PRKACA (human) (UniProt P17612)
# CAMK4 (human) = CAMK4 (human) (UniProt Q16566)
# Sequence of CAMK4 (human) (Q16566 whole entry, looked up): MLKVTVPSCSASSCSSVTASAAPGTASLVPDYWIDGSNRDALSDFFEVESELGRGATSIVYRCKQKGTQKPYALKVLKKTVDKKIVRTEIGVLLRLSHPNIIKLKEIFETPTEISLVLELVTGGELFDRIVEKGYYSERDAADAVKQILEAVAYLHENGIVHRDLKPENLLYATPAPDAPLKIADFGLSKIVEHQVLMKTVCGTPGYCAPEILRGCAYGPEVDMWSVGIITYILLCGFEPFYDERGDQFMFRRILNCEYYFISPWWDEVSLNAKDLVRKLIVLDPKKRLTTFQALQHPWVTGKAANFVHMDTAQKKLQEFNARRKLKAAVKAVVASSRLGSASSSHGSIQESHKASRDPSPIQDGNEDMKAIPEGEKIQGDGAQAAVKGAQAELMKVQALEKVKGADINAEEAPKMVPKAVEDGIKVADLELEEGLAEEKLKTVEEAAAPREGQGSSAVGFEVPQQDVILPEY
# MYLK2 (human) = MYLK2 (human) (UniProt Q9H1R3)
# MAPK9 (human) = MAPK9 (human) (UniProt P45984)
# Sequence of PIM2 (human) (Q9P1W9 whole entry, looked up): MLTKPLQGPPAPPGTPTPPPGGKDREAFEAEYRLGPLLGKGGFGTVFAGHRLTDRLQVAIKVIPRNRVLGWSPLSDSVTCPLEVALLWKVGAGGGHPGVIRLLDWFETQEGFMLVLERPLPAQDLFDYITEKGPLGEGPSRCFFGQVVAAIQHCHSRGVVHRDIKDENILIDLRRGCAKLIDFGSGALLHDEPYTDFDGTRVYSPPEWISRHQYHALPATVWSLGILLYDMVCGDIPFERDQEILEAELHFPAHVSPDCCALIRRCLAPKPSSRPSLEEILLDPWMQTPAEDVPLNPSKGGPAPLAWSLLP
compound,measurement,setting,value
Cc1ccc(Nc2nccc(N(C)c3ccc4c(C)n(C)nc4c3)n2)cc1S(N)(=O)=O,inhibition,ALK (human); compound 0.02 µM,10.1%
same,inhibition,ALK (human); compound 0.2 µM,7.9%
same,inhibition,CAMK1 (human); compound 0.02 µM,-2.3%
same,inhibition,CAMK1 (human); compound 0.2 µM,1.4%
same,inhibition,CLK2 (human); compound 0.02 µM,6.2%
same,inhibition,CLK2 (human); compound 0.2 µM,7.2%
same,inhibition,PIM2 (human); compound 0.02 µM,2.7%
same,inhibition,PIM2 (human); compound 0.2 µM,6.8%
same,inhibition,NUAK1 (human); compound 0.02 µM,-7.8%
same,inhibition,NUAK1 (human); compound 0.2 µM,42%
same,inhibition,EPHA4 (human); compound 0.02 µM,-4.7%
same,inhibition,EPHA4 (human); compound 0.2 µM,0.2%
same,inhibition,PRKAA1 (human); compound 0.02 µM,8%
same,inhibition,PRKAA1 (human); compound 0.2 µM,-10.1%
same,inhibition,MELK (human); compound 0.02 µM,8.1%
same,inhibition,MELK (human); compound 0.2 µM,12.4%
same,inhibition,DDR1 (human); compound 0.02 µM,19.6%
same,inhibition,DDR1 (human); compound 0.2 µM,80.9%
same,inhibition,CDK2 (human); compound 0.02 µM,-0.1% and -1.7%
same,inhibition,CDK2 (human); compound 0.2 µM,-1.7% and -2.8%
same,inhibition,RPS6KA5 KD1 KD2 (human); compound 0.02 µM,-4.7%
same,inhibition,MST1R (human); compound 0.02 µM,2.1%
same,inhibition,MST1R (human); compound 0.2 µM,4.9%
same,inhibition,PRKAA2 (human); compound 0.02 µM,7%
same,inhibition,PRKAA2 (human); compound 0.2 µM,-6.6%
same,inhibition,CLK3 (human); compound 0.02 µM,-3.9%
same,inhibition,CLK3 (human); compound 0.2 µM,9.6%
same,inhibition,MUSK (human); compound 0.02 µM,-1.6%
same,inhibition,MUSK (human); compound 0.2 µM,0.7%
same,inhibition,ALK EML4 (human); compound 0.02 µM,-0.3%
same,inhibition,ALK EML4 (human); compound 0.2 µM,6.8%
same,inhibition,NEK7 (human); compound 0.02 µM,-2.9%
same,inhibition,NEK7 (human); compound 0.2 µM,0%
same,inhibition,CSNK1D (human); compound 0.02 µM,-1.8% and -2.9%
same,inhibition,CSNK1D (human); compound 0.2 µM,-2.9% and -3.3%
same,inhibition,TEK (human); compound 0.02 µM,-4.6%
same,inhibition,TEK (human); compound 0.2 µM,2.7%
same,inhibition,PIM1 (human); compound 0.02 µM,-4.2%
same,inhibition,PIM1 (human); compound 0.2 µM,0.8%
same,inhibition,PAK4 (human); compound 0.02 µM,0.9%
same,inhibition,PAK4 (human); compound 0.2 µM,8%
same,inhibition,NUAK2 (human); compound 0.02 µM,-16.5%
same,inhibition,NUAK2 (human); compound 0.2 µM,6.3%
same,inhibition,SYK (human); compound 0.02 µM,4.4%
same,inhibition,SYK (human); compound 0.2 µM,-4.7%
same,inhibition,RPS6KB2 (human); compound 0.02 µM,4.3%
same,inhibition,RPS6KB2 (human); compound 0.2 µM,6.7%
same,inhibition,MAPK7 (human); compound 0.02 µM,-7.8%
same,inhibition,MAPK7 (human); compound 0.2 µM,-7.6%
same,inhibition,FGFR3 (human); compound 0.02 µM,21.3%
same,inhibition,FGFR3 (human); compound 0.2 µM,68.5%
same,inhibition,PASK (human); compound 0.02 µM,-0.6%
same,inhibition,PASK (human); compound 0.2 µM,3.1%
same,inhibition,PDK2 (human); compound 0.02 µM,-2.3%
same,inhibition,PDK2 (human); compound 0.2 µM,-4.2%
same,inhibition,EEF2K (human); compound 0.02 µM,2.9%
same,inhibition,EEF2K (human); compound 0.2 µM,4.7%
same,inhibition,CDC42BPA (human); compound 0.02 µM,13.3%
same,inhibition,CDC42BPA (human); compound 0.2 µM,11%
same,inhibition,PRKACA (human); compound 0.02 µM,-6.3%
same,inhibition,PRKACA (human); compound 0.2 µM,-5%
same,inhibition,CAMK4 (human); compound 0.02 µM,-2.8%
same,inhibition,CAMK4 (human); compound 0.2 µM,-1.2%
CNC(=O)c1cc(Oc2ccc(NC(=O)Nc3ccc(Cl)c(C(F)(F)F)c3)cc2)ccn1,inhibition,ALK (human); compound 0.02 µM,-3.3%
same,inhibition,ALK (human); compound 0.2 µM,5.8%
same,inhibition,CAMK1 (human); compound 0.02 µM,-4.6%
same,inhibition,CAMK1 (human); compound 0.2 µM,-2.2%
same,inhibition,CLK2 (human); compound 0.02 µM,-0.7%
same,inhibition,CLK2 (human); compound 0.2 µM,-2.1%
same,inhibition,PIM2 (human); compound 0.02 µM,-0.2%
same,inhibition,PIM2 (human); compound 0.2 µM,1.2%
same,inhibition,NUAK1 (human); compound 0.02 µM,-3.8%
same,inhibition,NUAK1 (human); compound 0.2 µM,3.8%
same,inhibition,EPHA4 (human); compound 0.02 µM,-1.7%
same,inhibition,EPHA4 (human); compound 0.2 µM,22%
same,inhibition,PRKAA1 (human); compound 0.02 µM,-5.7%
same,inhibition,PRKAA1 (human); compound 0.2 µM,10.7%
same,inhibition,MELK (human); compound 0.02 µM,-4.3%
same,inhibition,MELK (human); compound 0.2 µM,-1.1%
same,inhibition,DDR1 (human); compound 0.02 µM,4.2%
same,inhibition,DDR1 (human); compound 0.2 µM,88.7%
same,inhibition,CDK2 (human); compound 0.02 µM,-3.5% and -3.6%
same,inhibition,CDK2 (human); compound 0.2 µM,-1.3% and -2.4%
same,inhibition,RPS6KA5 KD1 KD2 (human); compound 0.02 µM,-2.5%
same,inhibition,RPS6KA5 KD1 KD2 (human); compound 0.2 µM,0.1%
same,inhibition,MYLK2 (human); compound 0.02 µM,-3.3%
same,inhibition,MYLK2 (human); compound 0.2 µM,-2.4%
same,inhibition,MST1R (human); compound 0.02 µM,-4.7%
same,inhibition,MST1R (human); compound 0.2 µM,5.3%
same,inhibition,PRKAA2 (human); compound 0.02 µM,-5.3%
same,inhibition,PRKAA2 (human); compound 0.2 µM,10.4%
same,inhibition,MAPK9 (human); compound 0.02 µM,-7.7%
same,inhibition,MAPK9 (human); compound 0.2 µM,0.5%
same,inhibition,CLK3 (human); compound 0.02 µM,-7.5%
same,inhibition,CLK3 (human); compound 0.2 µM,5.9%
same,inhibition,MUSK (human); compound 0.02 µM,24.4%
same,inhibition,MUSK (human); compound 0.2 µM,73.9%
same,inhibition,ALK EML4 (human); compound 0.02 µM,-6.5%
same,inhibition,ALK EML4 (human); compound 0.2 µM,2.8%
same,inhibition,NEK7 (human); compound 0.02 µM,-3.3%
same,inhibition,NEK7 (human); compound 0.2 µM,-3.3%
same,inhibition,CSNK1D (human); compound 0.02 µM,-2.4% and -2.9%
same,inhibition,CSNK1D (human); compound 0.2 µM,-3.6%
same,inhibition,TEK (human); compound 0.02 µM,-2.6%
same,inhibition,TEK (human); compound 0.2 µM,9.5%
same,inhibition,PIM1 (human); compound 0.02 µM,1%
same,inhibition,PIM1 (human); compound 0.2 µM,-3.6%
same,inhibition,PAK4 (human); compound 0.02 µM,-8%
same,inhibition,PAK4 (human); compound 0.2 µM,4.4%
same,inhibition,NUAK2 (human); compound 0.02 µM,-6%
same,inhibition,NUAK2 (human); compound 0.2 µM,2.5%
same,inhibition,SYK (human); compound 0.02 µM,-7.3%
same,inhibition,SYK (human); compound 0.2 µM,-11.1%
same,inhibition,RPS6KB2 (human); compound 0.02 µM,6.3%
same,inhibition,RPS6KB2 (human); compound 0.2 µM,5.5%
same,inhibition,MAPK7 (human); compound 0.02 µM,-9.1%
same,inhibition,MAPK7 (human); compound 0.2 µM,-8.8%
same,inhibition,FGFR3 (human); compound 0.02 µM,5.5%
same,inhibition,FGFR3 (human); compound 0.2 µM,51.7%
same,inhibition,PASK (human); compound 0.02 µM,-1%
same,inhibition,PASK (human); compound 0.2 µM,1.7%
same,inhibition,PDK2 (human); compound 0.02 µM,-0.1%
same,inhibition,PDK2 (human); compound 0.2 µM,1.3%
same,inhibition,EEF2K (human); compound 0.02 µM,-3.9%
same,inhibition,EEF2K (human); compound 0.2 µM,0%
same,inhibition,CDC42BPA (human); compound 0.02 µM,-0.8%
same,inhibition,CDC42BPA (human); compound 0.2 µM,8.1%
same,inhibition,PRKACA (human); compound 0.02 µM,-4.7%
same,inhibition,PRKACA (human); compound 0.2 µM,0.7%
same,inhibition,CAMK4 (human); compound 0.02 µM,-8.3%
same,inhibition,CAMK4 (human); compound 0.2 µM,1.9%
